Measured values: US9763957B2, “Autotaxin inhibitors” (Novartis AG, priority 2013, dated 2017)

Target: Recombinant human ATX (Homo sapiens (Human), UniProt Q13822)
Test: ATX inhibition assay (choline release, Amplex Red fluorescence)
Format: biochemical
Conditions: ATX 10 nM, LPC 18:1 10 μM, 37° C., 20 min pre-incubation; mean of n≧2
Summary of the method: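 Activity was taken from the slope of resorufin fluorescence (530/590 nm, read every 2 min for 40 min at 37 °C) produced by choline liberated from 10 μM oleoyl LPC.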

Point of comparison: Cc1nnn(Cc2cc(C(F)(F)F)ccc2OCC(=O)N2CCC(c3noc(C)n3)CC2)n1 [Example 36, 1-(4-(5-Methyl-1,2,4-oxadiazol-3-yl)piperidin-1-yl)-2-(2-((5-methyl-2H-tetrazol-2-yl)methyl)-4-(trifluoromethyl)phenoxy)ethanone], IC50 171 nM. Against it:
- Cc1nnn(Cc2cc(Cl)ccc2/C=C/C(=O)N2CC[C@@H](c3nnc(C)o3)C[C@H]2C)n1 [Example 98, (E)-3-(4-Chloro-2-((5-methyl-2H-tetrazol-2-yl)methyl)phenyl)-1-((2R,4R)-2-methyl-4-(5-methyl-1,3,4-oxadiazol-2-yl)piperidin-1-yl)prop-2-en-1-one] — 2.6-fold lower, 66 nM
- CC(=O)C1CCCN(C(=O)/C=C/c2ccc(Cl)cc2Cn2nnc(C)n2)C1 (centres unmarked) [Example 49.15, (E)-1-(3-Acetylpiperidin-1-yl)-3-(4-chloro-2-((5-methyl-2H-tetrazol-2-yl)methyl)phenyl)prop-2-en-1-one] — within 1.5-fold, 127 nM
- Cc1nnn(Cc2cc(C(F)(F)F)ccc2CCC(=O)N2CCC(CCCCCc3c[nH]nn3)CC2)n1 [Example 153, 1-(4-(5-(1H-1,2,3-Triazol-4-yl)pentyl)piperidin-1-yl)-3-(2-((5-methyl-2H-tetrazol-2-yl)methyl)-4-(trifluoromethyl)phenyl)propan-1-one] — 86-fold lower, 2 nM
- Cc1nnn(Cc2cc(Cl)ccc2/C=C/C(=O)N2CCCC(O)C2)n1 (centres unmarked) [Example 49.7, (E)-3-(4-Chloro-2-((5-methyl-2H-tetrazol-2-yl)methyl)phenyl)-1-(3-hydroxypiperidin-1-yl)prop-2-en-1-one] — within 1.5-fold, 151 nM
- COc1ccc(CN2CCN(C(=O)/C=C/c3ccc(Cl)cc3Cn3nnc(C)n3)[C@H](C)C2)nc1 [Example 123, (R,E)-3-(4-Chloro-2-((5-methyl-2H-tetrazol-2-yl)methyl)phenyl)-1-(4-((5-methoxypyridin-2-yl)methyl)-2-methylpiperazin-1-yl)prop-2-en-1-one] — 49-fold lower, 3.5 nM
- Cc1nnn(Cc2cc(Cl)ccc2/C=C/C(=O)N2CCC(C(O)c3ccc(Cl)cc3)CC2)n1 (single isomer, unassigned) [Example 66b, ((R or S), E)-3-(4-Chloro-2-((5-methyl-2H-tetrazol-2-yl)methyl)phenyl)-1-(4-((4-chlorophenyl)(hydroxy)methyl)piperidin-1-yl)prop-2-en-1-one] — 37-fold lower, 4.6 nM
- Cc1nnn(Cc2cc(Cl)ccc2/C=C/C(=O)N2CC(c3nnc(C)o3)C2)n1 [Example 85, (E)-3-(4-Chloro-2-((5-methyl-2H-tetrazol-2-yl)methyl)phenyl)-1-(3-(5-methyl-1,3,4-oxadiazol-2-yl)azetidin-1-yl)prop-2-en-1-one] — 1.7-fold higher, 289 nM
- Cc1nnn(Cc2cc(Cl)ccc2/C=C/C(=O)N2CCCC(c3nc(C(C)C)no3)C2)n1 (racemic) [Example 34, (rac)-(E)-3-(4-Chloro-2-((5-methyl-2H-tetrazol-2-yl)methyl)phenyl)-1-(3-(3-isopropyl-1,2,4-oxadiazol-5-yl)piperidin-1-yl)prop-2-en-1-one] — 5.9-fold lower, 29 nM
- Cc1nnn(Cc2cc(Cl)ccc2/C=C/C(=O)N2CCC(C(O)c3ccc(Cl)cc3)CC2)n1 (racemic) [Example 66, rac-(E)-3-(4-Chloro-2-((5-methyl-2H-tetrazol-2-yl)methyl)phenyl)-1-(4-((4-chlorophenyl)(hydroxy)methyl)piperidin-1-yl)prop-2-en-1-one] — 28-fold lower, 6 nM
- Cc1nnn(Cc2cc(Cl)ccc2/C=C/C(=O)N2CCN(c3ccn(C)n3)C[C@H]2C)n1 [Example 49.21, (R,E)-3-(4-Chloro-2-((5-methyl-2H-tetrazol-2-yl)methyl)phenyl)-1-(2-methyl-4-(1-methyl-1H-pyrazol-3-yl)piperazin-1-yl)prop-2-en-1-one] — 11-fold lower, 16 nM
- Cc1nnn(Cc2cc(Cl)ccc2/C=C/C(=O)N2CCC(CNC(=O)CCc3cc(O)no3)CC2)n1 [Example 147, (E)-N-((1-(3-(4-Chloro-2-((5-methyl-2H-tetrazol-2-yl)methyl)phenyl)acryloyl)piperidin-4-yl)methyl)-3-(3-hydroxyisoxazol-5-yl)propanamide] — 13-fold lower, 13 nM
- Cc1nnn(Cc2cc(C(F)(F)F)ccc2/C=C/C(=O)N2CCC(c3noc(C)n3)CC2)n1 [Example 4, (E)-1-(4-(5-Methyl-1,2,4-oxadiazol-3-yl)piperidin-1-yl)-3-(2-((5-methyl-2H-tetrazol-2-yl)methyl)-4-(trifluoromethyl)phenyl)prop-2-en-1-one] — 29-fold lower, 5.8 nM
- Cc1nnn(Cc2cc(Cl)ccc2/C=C/C(=O)N2CCC(c3nnc(CC(F)(F)F)o3)CC2)n1 [Example 141, (E)-3-(4-Chloro-2-((5-methyl-2H-tetrazol-2-yl)methyl)phenyl)-1-(4-(5-(2,2,2-trifluoroethyl)-1,3,4-oxadiazol-2-yl)piperidin-1-yl)prop-2-en-1-one] — 16-fold lower, 11 nM
- Cc1nnn(Cc2cc(Cl)ccc2COC(=O)N2CCC(c3nnc(C)o3)CC2)n1 [Example 47, 4-Chloro-2-((5-methyl-2H-tetrazol-2-yl)methyl)benzyl 4-(5-methyl-1,3,4-oxadiazol-2-yl)piperidine-1-carboxylate] — 2.6-fold higher, 442 nM
- Cc1nnn(Cc2cc(Cl)ccc2/C=C/C(=O)N2CCC(c3nnc(C(C)C)o3)CC2)n1 [Example 100, (E)-3-(4-Chloro-2-((5-methyl-2H-tetrazol-2-yl)methyl)phenyl)-1-(4-(5-isopropyl-1,3,4-oxadiazol-2-yl)piperidin-1-yl)prop-2-en-1-one] — 44-fold lower, 3.9 nM
- Cc1nnn(Cc2cc(C(F)(F)F)ccc2OCC(=O)N2CCC(CCCCCc3c[nH]nn3)CC2)n1 [Example 154, 1-(4-(5-(1H-1,2,3-Triazol-4-yl)pentyl)piperidin-1-yl)-2-(2-((5-methyl-2H-tetrazol-2-yl)methyl)-4-(trifluoromethyl)phenoxy)ethanone] — 71-fold lower, 2.4 nM
- Cc1cnn(C2CCN(C(=O)/C=C/c3ccc(Cl)cc3Cn3nnc(C)n3)CC2)c1 [Example 28, (E)-3-(4-Chloro-2-((5-methyl-2H-tetrazol-2-yl)methyl)phenyl)-1-(4-(4-methyl-1H-pyrazol-1-yl)piperidin-1-yl)prop-2-en-1-one] — 27-fold lower, 6.3 nM
- Cc1nnn(Cc2cc(C(F)(F)F)ccc2/C=C/C(=O)N2CCC(N(C)C(=O)c3ccc(F)cc3)CC2)n1 [Example 87] — 9-fold lower, 19 nM
- CCS(=O)(=O)N1CCN(C(=O)/C=C/c2ccc(C(F)(F)F)cc2Cn2nnc(C)n2)CC1 [Example 102, (E)-1-(4-(Ethylsulfonyl)piperazin-1-yl)-3-(2-((5-methyl-2H-tetrazol-2-yl)methyl)-4-(trifluoromethyl)phenyl)prop-2-en-1-one] — 3.2-fold lower, 53 nM
- Cc1nnn(Cc2cc(Cl)ccc2/C=C/C(=O)N2CC[C@H](NC(=O)C(F)(F)F)C2)n1 [Example 49.18, (S,E)-N-(1-(3-(4-Chloro-2-((5-methyl-2H-tetrazol-2-yl)methyl)phenyl)acryloyl)pyrrolidin-3-yl)-2,2,2-trifluoroacetamide] — within 1.5-fold, 130 nM
- Cc1nnn(Cc2cc(Cl)ccc2/C=C/C(=O)N2CCC(Cn3nnc(C)n3)CC2)n1 [Example 109, (E)-3-(4-Chloro-2-((5-methyl-2H-tetrazol-2-yl)methyl)phenyl)-1-(4-((5-methyl-2H-tetrazol-2-yl)methyl)piperidin-1-yl)prop-2-en-1-one] — 11-fold lower, 16 nM
- Cc1cnn(CC2CCN(C(=O)/C=C/c3ccc(Cl)cc3Cn3nnc(C)n3)CC2)n1 [Example 120, (E)-3-(4-Chloro-2-((5-methyl-2H-tetrazol-2-yl)methyl)phenyl)-1-(4-((4-methyl-2H-1,2,3-triazol-2-yl)methyl)piperidin-1-yl)prop-2-en-1-one] — 21-fold lower, 8.1 nM
